What was measured:
[1] = biological target: T1, full-length NS3/4A protease (genotype 1b) (Hepatitis C virus genotype 1b, UniProt Q9WMX2); test: biochemical; conditions: IC50 Full-length NS3/4A, purified full-length NS3/4A, genotype 1b wild-type
T1 construct: wild-type HCV NS3 (HCV polyprotein residues 1027–1657); His-tag (N); made in house
Protocol: All assays were done in duplicate in black 384-well plates (Matrix Technologies). […] 200 nL of 10 mM compound (50 µM final concentrations) were then added and incubated for 5 minutes. Enzyme reactions were initiated with 10 µL of substrate Ac-DE-Dap(QXL520)-EE-Abu-ψ-[COO]AS-C(5-FAMsp)-NH2 (Anaspec) (1 µM final concentration), incubated for 6 minutes, and quenched by 10 µL of 10% SDS as a stop solution. Fluorescence intensity was monitored with a POLARstar OPTIMA microplate reader (BMG LABTECH). Each plate contained a total of 32 positive and 32 negative controls.
(§1) A series of compound concentrations (0 to 200 µM final concentration at 2-fold serial dilution) in 100% DMSO were prepared in a 384-well plate. 20 µL of enzyme solution was distributed to wells, and 0.5 µL of varying concentration of compounds were added and incubated for 5 minutes. The enzyme reaction was initiated by adding 5 µL of the substrate, and its activity was continuously monitored for 6 minutes. The IC50 values were calculated by fitting with the Hill equation (1), with OriginPro 8.5 (OriginLab, Inc.) where y is percent inhibition, x is inhibitor concentration, n is the slope of the concentration–response curve (Hill slope), and Vmax is maximal inhibition from two to four independent assays. [drawing 1] (1)

full-length NS3/4A = biological target: T2, full-length NS3/4A (Hepatitis C virus genotype 1b, UniProt Q9WMX2); test: Type (mechanism) of enzyme inhibition, kinetic analysis; type: biochemical; conditions: with respect to the substrate, best fit model
T2 construct: wild-type HCV NS3 (HCV polyprotein residues 1027–1657); His-tag (N); made in house
Protocol: Full-length NS3/4A activity was monitored in the same way as the primary screening with varying concentration of both inhibitor compounds and substrate (0–8 µM). The concentration of compounds varied from 0 to 20 µM at 1.5-fold dilution factor.

NS3 protease domain = biological target: T3, NS3 protease domain (Hepatitis C virus genotype 1b, UniProt Q9WMX2); test: Fluorescence enzymatic assay with NS3 protease domain alone; type: biochemical
T3 construct: the full-length NS3/4A and the NS3/4A protease domain alone
Protocol: as §1

[2] = biological target: T4, NS3/4A protease genotype 2a (Hepatitis C virus genotype 2a, UniProt Q99IB8); test: Inhibition assay with NS3/4A from genotype 2a; type: biochemical; conditions: IC50 Purified NS3/4A Sub-genotype 2a, genotype 2a
T4 construct: against the NS3/4A protease domains from three additional HCV genotypes (1a, 2a, and 4d); purchased Anaspec
Protocol: The inhibitory activity of the final hit compounds from HTS were tested against three other HCV genotypes (1a, 2a, and 4d), along with a control (genotype 1b) and five NS3 drug-resistant mutants. Eight full-length NS3 mutants (V36M, R155K, A156T, A156S, 156V, V36A, T54A, and R155T) were generated by mutagenesis and purified, and the three HCV NS3/4A protease genotypes were purchased from Anaspec. Unfortunately the enzyme activities of the three mutants V36A, T54A, and R155T were much less than that of the rest of the mutants and were insufficient for testing, therefore mutant studies were done with the five active mutants. Continuous kinetic assays were performed against all hit compounds in the same way as the wild-type NS3/4A. As a control, full-length NS3/4A (genotype 1b) was tested under the same conditions for direct comparison for each plate.

[3] = biological target: T5, HCV replicon cell lysate sg 1b (NS3) (Hepatitis C virus genotype 1b, UniProt Q9WMX2); test: Whole cell lysate inhibition assay, HCV subgenomic replicon 1b; type: biochemical
T5 construct: host or cells: Huh7 Clone B cells stably replicating an HCV 1b subgenomic replicon; whole cell lysate
Protocol: (§2) Huh7-1 cells (also known as Huh7/scr cells) were obtained from F.V. Chisari (The Scripps Research Institute, La Jolla, CA). Clone B HCV sub-genotype 1b Huh7 cells were obtained from the NIH AIDS Research and Reference Reagent Program and have been previously described. Huh7 cells stably replicating the sub-genotype 2a HCV JFH-1 replicon were generated as previously described. All cells were cultured in complete Dulbecco’s modified Eagle’s medium (DMEM) supplemented with 10% fetal bovine serum, 100 units/mL penicillin, […] streptomycin, and 2 mM L-glutamine. HCV replicon cells were maintained in 500 µg/mL Geneticin (Invitrogen). For NS3 inhibition analysis, lysates from parental Huh7 cells and HCV replicon cells were harvested on ice in pre-chilled FRET cell lysis buffer (50 mM Tris-HCl, pH 7.5; 150 mM NaCl, 2 mM EDTA, 1.25% Triton X-100). Lysates were brought to room temperature and mixed 1∶1 with 2× FRET assay buffer (100 mM Tris-HCl, pH 7.5, 300 mM NaCl, 4 mM EDTA, 2.5% Triton X-100, 10 mM GSH, and 4 µM substrate). Fluorescence intensity was continuously monitored for 1 hour, and IC50 values were determined in the same way as biochemical assays.

[4] = biological target: T6, HCV replicon cell lysate sg 2a (NS3) (Hepatitis C virus genotype 2a, UniProt Q99IB8); test: Whole cell lysate inhibition assay, HCV subgenomic replicon 2a; type: biochemical
T6 construct: expressed in transfected cells; host or cells: Huh7 cells stably replicating the JFH-1 subgenomic replicon; whole cell lysate
Protocol: as §2

replicon cells 1b = test system: replicon cells 1b; design: method as in PMID 19457562, PMID 14578911; conditions: cited from earlier work
replicon cells 2a = test system: replicon cells 2a; design: method as in PMID 19457562, PMID 14578911; conditions: cited from earlier work

COc1ccc2c(O[C@@H]3C[C@H]4C(=O)N[C@]5(C(=O)O)C[C@H]5/C=C\CCCCC[C@H](NC(=O)OC5CCCC5)C(=O)N4C3)cc(-c3csc(NC(C)C)n3)nc2c1 [BILN-2061, reference compound]
IC50 [1]: 4.6 ± 0.5 nM
mechanism of inhibition (full-length NS3/4A): competitive inhibition
IC50 (NS3 protease domain): 1.7 ± 0.1 nM
IC50 [2]: 12 ± 1 nM
fold increase of IC50, whole cell lysate 1b vs biochemical assay ([3]; sg1b lysate compared to purified enzyme): ~8 fold
IC50 ([3]; whole cell lysate, subgenomic replicon 1b): 37 ± 10 nM
fold increase of IC50, whole cell lysate 2a vs biochemical assay ([4]; sg2a lysate compared to purified enzyme): ~19 fold
IC50 ([4]; whole cell lysate, subgenomic replicon 2a): 230 ± 30 nM
EC50 (replicon cells 1b): 3 nM
EC50 (replicon cells 2a): 67 nM
